Results published in patent US20100267561A1, “HERBICIDAL PYRIDAZINONE DERIVATIVES” (priority 2007, published 2010).

Experiments:
Assay in all cases: Test B pre-/postemergence plant response
Format in all cases: in vivo
[1] = test system: bermudagrass (Cynodon dactylon); conditions: for Bermudagrass plant response rating: 8 g ai/ha
Summary of the method: (§1)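 Visual scoring from 0 (no effect) to 100 (complete control) against untreated controls was done 13 to 15 days after greenhouse treatment. Chemicals were formulated in a surfactant-containing non-phytotoxic solvent and applied to soil preemergence or to 1- to 4-leaf (2-18 cm) plants postemergence.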

[2] = test system: blackgrass (Alopecurus myosuroides); conditions: for Plant response rating, Blackgrass: Postemergence
Summary of the method: as §1

[3] = test system: common (oilseed) sunflower (Helianthus annuus); conditions: Preemergence
Summary of the method: as §1

[4] = test system: corn (Zea mays); conditions: for Corn plant response rating: 8 g ai/ha
Summary of the method: as §1

[5] = test system: downy bromegrass (Bromus tectorum); conditions: for Bromegrass, Downy plant response rating: 8 g ai/ha
Summary of the method: as §1

[6] = test system: giant foxtail (Setaria faberii); conditions: for Foxtail, Giant plant response rating: 8 g ai/ha
Summary of the method: as §1

[7] = test system: green foxtail (Setaria viridis); conditions: for Foxtail, Green plant response rating: 8 g ai/ha
Summary of the method: as §1

[8] = test system: lambsquarters (Chenopodium album); conditions: for Lambsquarters plant response rating: 8 g ai/ha
Summary of the method: as §1

[9] = test system: large crabgrass (Digitaria sanguinalis); conditions: for Crabgrass, Large plant response rating: 8 g ai/ha
Summary of the method: as §1

[10] = test system: morningglory (Ipomoea coccinea); conditions: for Morningglory plant response rating: 8 g ai/ha
Summary of the method: as §1

[11] = test system: velvetleaf (Abutilon theophrasti); conditions: for Velvetleaf plant response rating: 8 g ai/ha
Summary of the method: as §1

[12] = test system: wheat (Triticum aestivum); conditions: for Wheat plant response rating: 8 g ai/ha
Summary of the method: as §1

[13] = test system: wild oat (Avena fatua); conditions: for Oat, Wild plant response rating: 8 g ai/ha
Summary of the method: as §1

[14] = Postemergence, 16 g ai/ha, scale 0 to 100
[15] = Postemergence, 31 g ai/ha, scale 0 to 100, 0 no effect, 100 complete control
[16] = Postemergence, 62 g ai/ha, scale 0 to 100, 0 no effect, 100 complete control
[17] = Preemergence, 16 g ai/ha, scale 0 to 100 (0 no effect, 100 complete control)
[18] = Preemergence, 31 g ai/ha, 0 to 100 scale, 0 no effect, 100 complete control
[19] = Preemergence, 62 g ai/ha, scale 0 to 100

Structure (SMILES): Cn1ncc(O)c(-c2nn(-c3ccc(Cl)cc3)cc2Cl)c1=O [Compound 28]
- Bermudagrass plant response rating ([1]; postemergence, 0-100 scale): 65
- Plant response rating, Bermudagrass [1, 14]: 80
- Plant response rating, Bermudagrass [1, 15]: 100
- Plant response rating, Bermudagrass [1, 16]: 100
- Bermudagrass plant response rating ([1]; Preemergence, scale 0 to 100 (0 no effect, 100 complete control)): 0
- Plant response rating, Bermudagrass [1, 17]: 100
- Plant response rating, Bermudagrass [1, 18]: 100
- Plant response rating, Bermudagrass [1, 19]: 100
- Blackgrass plant response rating ([2]; 8 g ai/ha, postemergence, 0-100 scale): 60
- Plant response rating, Blackgrass ([2]; 16 g ai/ha, scale 0 to 100): 70
- Plant response rating, Blackgrass ([2]; 31 g ai/ha, scale 0 to 100, 0 no effect, 100 complete control): 95
- Plant response rating, Blackgrass ([2]; 62 g ai/ha, scale 0 to 100, 0 no effect, 100 complete control): 100
- Plant response rating, Sunflower ([3]; 16 g ai/ha, scale 0 to 100 (0 no effect, 100 complete control)): 0
- Plant response rating, Sunflower ([3]; 31 g ai/ha, 0 to 100 scale, 0 no effect, 100 complete control): 0
- Plant response rating, Sunflower ([3]; 62 g ai/ha, scale 0 to 100): 0
- Sunflower plant response rating ([3]; 8 g ai/ha, scale 0 to 100): 0
- Corn plant response rating ([4]; postemergence, 0-100 scale): 0
- Plant response rating, Corn [4, 14]: 0
- Plant response rating, Corn [4, 15]: 0
- Plant response rating, Corn [4, 16]: 40
- Plant response rating, Corn [4, 17]: 0
- Plant response rating, Corn [4, 18]: 55
- Plant response rating, Corn [4, 19]: 90
- Corn plant response rating ([4]; Preemergence, scale 0 to 100): 0
- Bromegrass, Downy plant response rating ([5]; postemergence, 0-100 scale): 0
- Plant response rating, Bromegrass, Downy [5, 14]: 5
- Plant response rating, Bromegrass, Downy [5, 15]: 10
- Plant response rating, Bromegrass, Downy [5, 16]: 20
- Plant response rating, Bromegrass, Downy [5, 17]: 40
- Plant response rating, Bromegrass, Downy [5, 18]: 50
- Plant response rating, Bromegrass, Downy [5, 19]: 50
- Bromegrass, Downy plant response rating ([5]; Preemergence, scale 0 to 100): 20
- Foxtail, Giant plant response rating ([6]; postemergence, 0-100 scale): 65
- Plant response rating, Foxtail, Giant [6, 14]: 80
- Plant response rating, Foxtail, Giant [6, 15]: 95
- Plant response rating, Foxtail, Giant [6, 16]: 100
- Plant response rating, Foxtail, Giant [6, 17]: 98
- Plant response rating, Foxtail, Giant [6, 18]: 100
- Plant response rating, Foxtail, Giant [6, 19]: 100
- Foxtail, Giant plant response rating ([6]; Preemergence, scale 0 to 100): 60
- Foxtail, Green plant response rating ([7]; postemergence, 0-100 scale): 60
- Plant response rating, Foxtail, Green [7, 14]: 65
- Plant response rating, Foxtail, Green [7, 15]: 98
- Plant response rating, Foxtail, Green [7, 16]: 100
- Plant response rating, Foxtail, Green [7, 17]: 100
- Plant response rating, Foxtail, Green [7, 18]: 100
- Plant response rating, Foxtail, Green [7, 19]: 100
- Foxtail, Green plant response rating ([7]; Preemergence, scale 0 to 100): 30
- Lambsquarters plant response rating ([8]; postemergence, 0-100 scale): 0
- Plant response rating, Lambsquarters [8, 14]: 0
- Plant response rating, Lambsquarters [8, 15]: 0
- Plant response rating, Lambsquarters [8, 16]: 0
- Plant response rating, Lambsquarters [8, 17]: 95
- Plant response rating, Lambsquarters [8, 18]: 95
- Plant response rating, Lambsquarters [8, 19]: 98
- Lambsquarters plant response rating ([8]; Preemergence, scale 0 to 100): 80
- Crabgrass, Large plant response rating ([9]; postemergence, 0-100 scale): 60
- Plant response rating, Crabgrass, Large [9, 14]: 75
- Plant response rating, Crabgrass, Large [9, 15]: 80
- Plant response rating, Crabgrass, Large [9, 16]: 98
- Plant response rating, Crabgrass, Large [9, 17]: 98
- Plant response rating, Crabgrass, Large [9, 18]: 100
- Plant response rating, Crabgrass, Large [9, 19]: 100
- Crabgrass, Large plant response rating ([9]; Preemergence, scale 0 to 100): 65
- Morningglory plant response rating ([10]; postemergence, 0-100 scale): 0
- Plant response rating, Morningglory [10, 14]: 0
- Plant response rating, Morningglory [10, 15]: 0
- Plant response rating, Morningglory [10, 16]: 0
- Plant response rating, Morningglory [10, 17]: 0
- Plant response rating, Morningglory [10, 18]: 0
- Plant response rating, Morningglory [10, 19]: 0
- Morningglory plant response rating ([10]; Preemergence, scale 0 to 100): 0
- Velvetleaf plant response rating ([11]; postemergence, 0-100 scale): 0
- Plant response rating, Velvetleaf [11, 14]: 0
- Plant response rating, Velvetleaf [11, 16]: 0
- Plant response rating, Velvetleaf [11, 17]: 0
- Plant response rating, Velvetleaf [11, 18]: 0
- Plant response rating, Velvetleaf [11, 19]: 0
- Velvetleaf plant response rating ([11]; Preemergence, scale 0 to 100): 0
- Wheat plant response rating ([12]; postemergence, 0-100 scale): 20
- Plant response rating, Wheat [12, 14]: 40
- Plant response rating, Wheat [12, 16]: 90
- Plant response rating, Wheat [12, 17]: 5
- Plant response rating, Wheat [12, 18]: 15
- Plant response rating, Wheat [12, 19]: 90
- Wheat plant response rating ([12]; Preemergence, scale 0 to 100): 0
- Oat, Wild plant response rating ([13]; postemergence, 0-100 scale): 45
- Plant response rating, Oat, Wild [13, 14]: 80
- Plant response rating, Oat, Wild [13, 15]: 95
- Plant response rating, Oat, Wild [13, 16]: 98
- Plant response rating, Oat, Wild [13, 17]: 50
- Plant response rating, Oat, Wild [13, 18]: 70
- Plant response rating, Oat, Wild [13, 19]: 90
- Oat, Wild plant response rating ([13]; Preemergence, scale 0 to 100): 0
